Data as given in the NIST ThermoML archive (doi:10.1016/j.jct.2015.10.004).
Where “and” joins values, the source holds several entries; their conditions need not be identical. Equal values may be shown once. ± gives the expanded uncertainty stated by the source.

Assay: mn = molality of the nth substance listed, in mol/kg
Settings: 101 kPa, Liquid; for mass density: Pycnometric method; for electrical conductivity: Alternating current cell with electrodes

O=S(=O)([O-])C(F)(F)C(F)(F)C(F)(F)C(F)(F)F.[K+] [potassium perfluorobutanesulfonate] + O
Settings	electrical conductivity, 293.15 K [S/m]	electrical conductivity, 298.15 K [S/m]	electrical conductivity, 303.15 K [S/m]	electrical conductivity, 308.15 K [S/m]	electrical conductivity, 313.15 K [S/m]	mass density, 288.15 K [kg/m3]	mass density, 293.15 K [kg/m3]	mass density, 298.15 K [kg/m3]	mass density, 303.15 K
m1 = 0.0003	0.00278 ± 0.0004	0.00312 ± 0.00045	0.00344 ± 0.0005	0.00378 ± 0.00055	0.00413 ± 0.0006	–	–	–	–
m1 = 0.00054	0.00499 ± 0.00046	0.00562 ± 0.00052	0.00619 ± 0.00058	0.00681 ± 0.00063	0.00742 ± 0.00069	–	–	–	–
m1 = 0.00087	0.00784 ± 0.00058	0.00882 ± 0.00066	0.00972 ± 0.00072	0.0107 ± 0.0008	0.0117 ± 0.00087	–	–	–	–
m1 = 0.00125	0.0111 ± 0.00075	0.0125 ± 0.00085	0.0138 ± 0.00093	0.0152 ± 0.001	0.0166 ± 0.0011	–	–	–	–
m1 = 0.00164	0.0145 ± 0.00093	0.0163 ± 0.001	0.018 ± 0.0012	0.0197 ± 0.0013	–	–	–	–	–
m1 = 0.00207	0.0181 ± 0.0011	0.0203 ± 0.0013	0.0226 ± 0.0014	0.0248 ± 0.0016	0.0271 ± 0.0017	–	–	–	–
m1 = 0.00259	0.0227 ± 0.0014	0.0253 ± 0.0016	0.0279 ± 0.0017	0.0307 ± 0.0019	0.0335 ± 0.0021	–	–	–	–
m1 = 0.00315	0.0273 ± 0.0017	0.0304 ± 0.0019	0.0336 ± 0.0021	0.0369 ± 0.0023	0.0403 ± 0.0025	–	–	–	–
m1 = 0.00374	0.0322 ± 0.002	0.0357 ± 0.0022	0.0395 ± 0.0024	0.0434 ± 0.0026	0.0474 ± 0.0029	–	–	–	–
m1 = 0.00437	0.0372 ± 0.0023	0.0415 ± 0.0025	0.0457 ± 0.0028	0.0504 ± 0.0031	0.0549 ± 0.0033	–	–	–	–
m1 = 0.00501	0.0423 ± 0.0026	0.0471 ± 0.0028	0.0521 ± 0.0032	0.0572 ± 0.0035	0.0625 ± 0.0038	–	–	–	–
m1 = 0.00571	0.0478 ± 0.0029	0.0532 ± 0.0032	0.0588 ± 0.0035	0.0646 ± 0.0039	0.0705 ± 0.0043	–	–	–	–
m1 = 0.00646	0.0537 ± 0.0032	0.0596 ± 0.0036	0.0658 ± 0.004	0.0725 ± 0.0044	0.0792 ± 0.0048	–	–	–	–
m1 = 0.00723	0.0596 ± 0.0036	0.0662 ± 0.004	0.0732 ± 0.0044	0.0805 ± 0.0048	0.0878 ± 0.0053	–	–	–	–
m1 = 0.00809	0.0661 ± 0.004	0.0734 ± 0.0044	0.081 ± 0.0049	–	0.0976 ± 0.0059	–	–	–	–
m1 = 0.00904	0.0731 ± 0.0044	0.0814 ± 0.0049	–	–	–	–	–	–	–
m1 = 0.04	–	–	–	–	–	1006.5 ± 0.5	1005.6 ± 0.5	1004.3 ± 0.5	1002.7 ± 0.5 kg/m3 and 1002.8 ± 0.5 kg/m3

C[C@H](N)C(=O)N[C@@H](CCC(N)=O)C(=O)O [L-alanyl-L-glutamine] + O
electrical conductivity [S/m]
Settings	293.15 K	298.15 K	303.15 K	308.15 K	313.15 K
m1 = 0.05	0.0034 ± 0.0004	0.00364 ± 0.00043	0.00391 ± 0.00049	0.00427 ± 0.00054	0.00463 ± 0.0006
m1 = 0.1	0.00555 ± 0.00046	0.00599 ± 0.00066	0.00648 ± 0.0006	0.00707 ± 0.00069	0.00792 ± 0.00078
m1 = 0.15	0.00766 ± 0.00052	0.0084 ± 0.0007	0.009 ± 0.00071	0.00985 ± 0.00079	0.0112 ± 0.00088
m1 = 0.2	0.0107 ± 0.00072	0.0115 ± 0.00079	0.0124 ± 0.00086	0.0138 ± 0.00093	0.0153 ± 0.001

CC(C)C[C@H](NC(=O)CN)C(=O)O [glycyl-L-leucine] + O
electrical conductivity
Settings	293.15 K	298.15 K	303.15 K	308.15 K	313.15 K
m1 = 0.05	0.00321 ± 0.0004 S/m	0.00345 ± 0.00044 S/m	0.00373 S/m and 0.00372 S/m	0.00406 ± 0.00053 S/m	0.00455 ± 0.00057 S/m
m1 = 0.1	0.00533 ± 0.00046 S/m	0.0058 ± 0.00052 S/m	0.00634 ± 0.00056 S/m	0.00703 ± 0.00063 S/m	0.00781 ± 0.0007 S/m
m1 = 0.15	0.0074 ± 0.00054 S/m	0.00809 ± 0.0006 S/m	0.00889 ± 0.00066 S/m	0.00987 ± 0.00073 S/m	0.011 ± 0.00081 S/m
m1 = 0.2	0.0104 ± 0.0007 S/m	0.0113 ± 0.00075 S/m	0.0124 ± 0.00084 S/m	0.0137 ± 0.00092 S/m	0.0152 ± 0.001 S/m

NCC(=O)N[C@@H](CCC(N)=O)C(=O)O [glycyl-l-glutamine] + O
electrical conductivity
Settings	293.15 K	298.15 K	303.15 K	308.15 K	313.15 K
m1 = 0.05	0.00342 ± 0.00042 S/m	0.00366 ± 0.00045 S/m	0.00392 ± 0.00051 S/m	0.00428 ± 0.00056 S/m	0.00464 ± 0.0006 S/m
m1 = 0.1	0.00556 ± 0.00048 S/m	0.006 ± 0.00053 S/m	0.00649 ± 0.0006 S/m	0.00708 ± 0.00063 S/m	0.00793 S/m and 0.00773 S/m
m1 = 0.15	0.00768 ± 0.00049 S/m	0.00832 ± 0.00057 S/m	0.00902 ± 0.00065 S/m	0.00999 ± 0.00068 S/m	0.0108 S/m and 0.0112 S/m
m1 = 0.2	0.0107 ± 0.00072 S/m	0.0116 ± 0.00078 S/m	0.0125 ± 0.00084 S/m	0.0139 ± 0.00092 S/m	0.0148 S/m and 0.0158 S/m

CC(C)[C@H](NC(=O)CN)C(=O)O [glycyl-L-valine] + O
electrical conductivity [S/m]
Settings	293.15 K	298.15 K	303.15 K	308.15 K	313.15 K
m1 = 0.05	0.00323 ± 0.00039	0.00347 ± 0.00043	0.00374 ± 0.00047	0.00407 ± 0.00052	0.00456 ± 0.00058
m1 = 0.1	0.00535 ± 0.00047	0.00582 ± 0.00052	0.00636 ± 0.00056	0.00705 ± 0.00063	0.00783 ± 0.00069
m1 = 0.15	0.00742 ± 0.00054	0.00811 ± 0.00058	0.00891 ± 0.00067	0.00989 ± 0.00074	0.011 ± 0.00081
m1 = 0.2	0.0104 ± 0.00071	0.0114 ± 0.00077	0.0124 ± 0.00084	0.0137 ± 0.00093	0.0152 ± 0.001

NCC(=O)NCC(=O)O [glycylglycine] + O
electrical conductivity [S/m]
Settings	293.15 K	298.15 K	303.15 K	308.15 K	313.15 K
m1 = 0.05	0.00328 ± 0.00046	0.00355 ± 0.00048	0.00385 ± 0.00052	0.00429 ± 0.00058	0.00474 ± 0.00083
m1 = 0.1	0.00543 ± 0.00048	0.00593 ± 0.00053	0.00652 ± 0.00059	0.00724 ± 0.00065	0.00805 ± 0.00071
m1 = 0.15	0.00745 ± 0.00053	0.00818 ± 0.0006	0.00904 ± 0.00067	0.0101	0.0113 ± 0.00082
m1 = 0.2	0.0106 ± 0.00072	0.0115 ± 0.00079	0.0125 ± 0.00083	0.014 ± 0.00095	0.0155 ± 0.001

O=S(=O)([O-])C(F)(F)C(F)(F)C(F)(F)C(F)(F)C(F)(F)C(F)(F)C(F)(F)C(F)(F)F.[K+] [potassium perfluorooctanesulfonate] + O
Settings	electrical conductivity, 293.15 K [S/m]	electrical conductivity, 298.15 K [S/m]	electrical conductivity, 303.15 K [S/m]	electrical conductivity, 308.15 K [S/m]	electrical conductivity, 313.15 K [S/m]	mass density, 288.15 K [kg/m3]	mass density, 293.15 K [kg/m3]	mass density, 298.15 K	mass density, 303.15 K
m1 = 0.0003	–	0.00301 ± 0.00041	0.00325 ± 0.0004	0.00359 ± 0.00046	0.00392 ± 0.00051	–	–	–	–
m1 = 0.00033	0.00284 ± 0.00033	0.00326 ± 0.00042	0.00353 ± 0.0004	0.0039 ± 0.00046	0.00427 ± 0.0005	–	–	–	–
m1 = 0.00036	0.00306 ± 0.00038	0.00352 ± 0.00041	0.00381 ± 0.00045	0.0042 ± 0.0005	0.0046 ± 0.00055	–	–	–	–
m1 = 0.00039	0.00326 ± 0.00036	0.00376 ± 0.00041	0.00407 ± 0.00045	0.00449 ± 0.00049	0.00492 ± 0.00054	–	–	–	–
m1 = 0.00041	0.00347 ± 0.00038	0.00399 ± 0.00044	0.00432 ± 0.00048	0.00478 ± 0.00053	0.00522 ± 0.00057	–	–	–	–
m1 = 0.00044	0.00366 ± 0.00038	0.00421 ± 0.00044	0.00456 ± 0.00048	0.00504 ± 0.00054	0.0055 ± 0.00058	–	–	–	–
m1 = 0.00046	0.00384 ± 0.00037	0.00444 ± 0.00043	0.00481 ± 0.00047	0.00531 ± 0.00052	0.0058 ± 0.00056	–	–	–	–
m1 = 0.00049	0.00404 ± 0.00041	0.00466 ± 0.00047	0.00506 ± 0.00051	0.0056 ± 0.00058	0.0061 ± 0.00061	–	–	–	–
m1 = 0.0005	–	–	–	–	–	999.3 ± 0.5	998.3 ± 0.5	997.1 ± 0.5 kg/m3 and 997.2 ± 0.5 kg/m3	995.7 ± 0.5 kg/m3 and 995.8 ± 0.5 kg/m3
m1 = 0.00052	0.00427 ± 0.0004	0.00492 ± 0.00046	0.00534 ± 0.0005	0.00592 ± 0.00056	0.00644 ± 0.0006	–	–	–	–
m1 = 0.00054	0.00447 ± 0.00041	0.00516 ± 0.00047	0.00559 ± 0.00051	0.00621 ± 0.00057	0.00673 ± 0.00061	–	–	–	–
m1 = 0.00057	0.00468 ± 0.00044	0.00541 ± 0.00051	0.00586 ± 0.00055	0.0065 ± 0.00061	0.00706 ± 0.00066	–	–	–	–
m1 = 0.0006	0.0049 ± 0.00041	0.00564 ± 0.00048	0.00612 ± 0.00052	0.00679 ± 0.00057	0.00737 ± 0.00062	–	–	–	–
m1 = 0.00062	0.0051 ± 0.00043	0.00589 ± 0.00049	0.00638 ± 0.00053	0.00709 ± 0.00059	0.00769 ± 0.00064	–	–	–	–
m1 = 0.00066	0.00534 ± 0.00045	0.00616 ± 0.00052	0.00667 ± 0.00055	0.00742 ± 0.00063	0.00805 ± 0.00068	–	–	–	–
m1 = 0.00069	0.00559 ± 0.00044	0.00643 ± 0.00051	0.00697 ± 0.00056	0.00775 ± 0.00062	0.00843 ± 0.00067	–	–	–	–
m1 = 0.00071	0.0058 ± 0.00051	0.00669 ± 0.00054	0.00724 ± 0.00059	0.00806 ± 0.00066	0.00875 ± 0.00072	–	–	–	–
m1 = 0.00075	–	0.00698 ± 0.00051	0.00756 ± 0.00061	0.00841 ± 0.00059	0.00914 ± 0.00067	–	–	–	–
m1 = 0.00078	–	0.00721 ± 0.00053	0.00782 ± 0.00061	0.00871 ± 0.00063	–	–	–	–	–
